Data set [1] deals with HIV-1RF. Kind of data set: Anti-HIV-1 Cytoprotection Assay (XTT). Conditions: AZT control.
The nature of data set [2]: in vitro. The following applies: African green monkey.
Source text: Anti-HSV-1 Cytoprotection Assay.
Data set [3] relates to herpes simplex virus type 1 strain HF. The data set is described as follows: Anti-HSV-1 Cytoprotection Assay (CPE reduction, MTS).

The values below come from US7083814B2, “Antiviral substances from plant cuticular and epicuticular material” (Rutgers, The State University of New Jersey, priority 2000, dated 2006).

On to `Cc1cn([C@H]2C[C@H](N=[N+]=[N-])[C@@H](CO)O2)c(=O)[nH]c1=O` [AZT], for which, in data set [1], the positive control result was “within the expected parameters”.

As to `Nc1nc2c(ncn2COCCO)c(=O)[nH]1` [Acyclovir], the IC50 in data set [2] is greater than 100 µM; in data set [3] (Human alphaherpesvirus 1), 2.4 µM; in data set [3] (Human alphaherpesvirus 1, Vero) it was 2.4 µM.
